Values after ≈ are worked out from the molar mass of the structure shown.
What was measured:
[1] = test system: HL-60 (ATCC CCL-240) cells; test: Viability and apoptosis of HL-60 cells (Trypan Blue, optical microscope); assay type: cell-based; settings: Homo sapiens, 24 hours, Trypan Blue, read-out: Viability50 (concentration that results in a viability of 50%)
Experimental: HL-60 (ATCC CCL-240) cells were cultured at 37° C. in RPMI 1640 medium (Bio Whittaker) containing 10% fetal calf serum (FCS; JRH) which had been treated at 56° C. for 30 minutes and suspended in RPMI 1640 medium at a concentration of 2.5×10^5 cells/5 ml.
10 μl each of solutions of diisobutyrylcyclopentenone, dimethoxyacetylcyclopentenone, dimethylfumarylcyclopentenone or dimethylmaleylcyclopentenone in 70% ethanol in water diluted to varying concentrations was added to 5 ml of the suspension. The mixtures were incubated at 37° C. for 24 hours in the presence of 5% Co2. 10 μl of aqueous actinomycin D (Sigma) solution (0.5 mg/ml), which is known as a reagent that induces apoptosis, was used in place of the sample and the mixture was incubated under the same conditions for confirmation.
The cultured cells were examined under an optical microscope.
Furthermore, a portion of the cells cultured as described above was stained with 0.4% Trypan Blue and examined under an optical microscope. The number of viable cells which were not stained and the number of dead cells which were stained blue were counted. The concentration of each of the samples that results in a viability of 50% (Viability50 μM) was determined.

Meth A = test: Ascitic cancer Meth A, prolongation of survival, 5 successive days; assay type: in vivo, BALB/c mouse; settings: intraperitoneal 10 mg/kg
Experimental: (§1) (3) The carcinostatic activities of dipropionylcyclopentenone and diisobutyrylcyclopentenone against various ascitic cancers were examined using two types of cancer cells, Ehrlich ascites carcinoma (EAC) and Meth A, administered intraperitoneally or orally at a varying dose.
(§2) Dipropionylcyclopentenone or diisobutyrylcyclopentenone was intraperitoneally or orally administered for 5 successive days from the day after the transplantation with cancer cells. Injectable distilled water was administered to a control group in a similar manner. Average days of survival, prolongation rate and 30-day survival number were calculated for groups each consisting of 8 mice.

[2] = test system: tumor necrosis factor (TNF)-α; test: Endotoxin shock model, serum TNF-α after LPS; assay type: in vivo, CDF1 mice; settings: serum 1.5 hours after LPS
Experimental: (1) A model for endotoxin shock was constructed using CDF1 mice (8 weeks old, female, purchased from Japan SLC). Distilled water (control), or 10 mg/kg of diisopropionylcyclopentenone or diisobutyrylcyclopentenone was subcutaneously administered to a mouse. 20 μg of lipopolysaccharide (LPS; Sigma) was intraperitoneally administered to each mouse 30 minutes after the administration. Blood was collected from the mouse 1.5 hours after the administration with LPS. The amount of tumor necrosis factor (TNF)-α in a serum separated from the collected blood was measured using a commercially available ELISA kit (R&D). Each group consisted of 4 mice.
(2) A model for endotoxin shock was constructed by intraperitoneally administering 20 μg of LPS to a CDF1 mouse (8 weeks old, female). 30 or 100 mg/kg of dipropionylcyclopentenone or diisobutyrylcyclopentenone was orally administered 30 minutes before the administration with LPS. Blood was collected from the mouse 1.5 hours after the administration with LPS. The amount of TNF-α in a serum separated from the collected blood was measured using an ELISA kit. Each group consisted of 4 mice.

[3] = test system: 70-kDa heat shock protein; test: Induction of 70-kDa heat shock protein in HL-60 cells (Western blot); assay type: cell-based; set-up: key to Degree of induction of 70-kDa heat shock protein: − means that no induction was observed; ± means that a slight induction was observed; + represents the induction level; ++: Increased number of + means increased induction; +++: Increased number of + means increased induction; settings: for Degree of induction of 70-kDa heat shock protein: HL-60, 6 hours
Experimental: (1) 5 ml of RPMI 1640 medium containing 10% fetal calf serum and HL-60 (ATCC CCL-240) cells at a concentration of 2×10^5 cells/ml was placed in each well of a 6-well plate. The plate was incubated at 37° C. for 24 hours in the presence of 5% CO2. Dipropionylcyclopentenone, diisobutyrylcyclopentenone or di-2-hexenoylcyclopentenone at a final concentration of 0, 0.63, 1.3, 2.5, 5, 10 or 20 μM was then added thereto. The incubation was continued for additional 6 hours.
After incubation, the cell number was counted. The cells were harvested by centrifugation, washed with PBS to prepare cells treated with one of the samples. Cells that were cultured in the same manner after heated at 45° C. for 10 minutes were also prepared.
These treated cells were used for SDS-PAGE according to the method as described in Molecular Cloning [Cold Spring Harbor Laboratory Press (1989)]. The treated cells were suspended in SDS-PAGE Sample buffer at a concentration of 2.5×10^6 cells/ml. The cell suspensions were treated at 100° C. for 10 minutes. 5 μl each of the cell suspensions was applied to two SDS-PAGE gels (5% stacking gel, 10% separation gel) and electrophoresed. One of the gels was subjected to Coomassie staining. The other gel was blotted onto a polyvinylidene difluoride transfer membrane (Immobilon™, Millipore, Cat. #IPVH000-10). The membrane was blocked at 4° C. overnight using Block Ace (Dainippon Pharmaceutical, Cat. #UK-B25).
The blocked membrane was reacted with a monoclonal antibody HSP72/73(Ab-1) (Oncogene Research Products, Cat. #HSP01), which specifically reacts with heat-inducible 70-kDa heat shock protein. The membrane was washed with TBS containing 0.05% Tween 20 followed by TBS. The membrane was then reacted with a peroxidase-conjugated secondary antibody HRP-Rabbit Anti-Mouse IgG (H+L) (Zymed Laboratories, Inc., Cat. #61-6520), and then washed as described above. The membrane reacted with the primary and secondary antibodies was reacted with a chemiluminol reagent Renaissance™ (Dupont NEN, Cat. #NEL-100). The membrane was then exposed to an X-ray film to confirm the induction of 70-kDa heat shock protein.

[4] = test system: Ehrlich ascites carcinoma (EAC); test: Ascitic cancer EAC, prolongation of survival; assay type: in vivo, ddY mouse; settings: 5 successive days; for 30-day survival number: groups of 8 mice
Experimental: as §1, §2

[5] = Single oral dose toxicity; assay type: in vivo; settings: mouse
Experimental: No toxicity is observed when a physiologically effective amount of the cyclopentenone derivative or an optical isomer thereof, or a salt thereof obtained according to the present invention is administered.

[6] = test system: Candida albicans TIMM0136; test: Antifungal activity, growth inhibition; assay type: cell-based; settings: 10 μl of solution at 100 or 500 μg/ml added to 100 μl culture, 30° C., 48 hours
Experimental: Dipropionylcyclopentenone, diisobutyrylcyclopentenone and di-2-hexenoylcyclopentenone were used to examine their antifungal activities against Candida albicans TIMM0136.
Candida albicans cells were cultured overnight in YNBG medium containing 0.67% Yeast Nitrogen Base (Difco) and 1.0% glucose (seed culture). The culture was then diluted with fresh Yeast Nitrogen Base medium to a concentration of 1×10^6 cells/ml. 100 μl of the dilution was dispensed into each well of a 96-well microtiter plate.
10 μl each of solutions of dipropionylcyclopentenone, diisobutyrylcyclopentenone or di-2-hexenoylcyclopentenone in 70% ethanol at a concentration of 100 μg/ml or 500 μg/ml, or 10 μl of 70% ethanol solution was added to the well. The plate was incubated without shaking at 30° C. for 48 hours (main culture).

[7] = test system: λ-carrageenan pedal edema; test: Carrageenan induced pedal edema; assay type: in vivo, Lewis rats; settings: rat, 3 hours after carrageenan
Experimental: Lewis rats (male, 9 weeks old, weighing about 250 g) were purchased from Seac Yoshitomi.
Rats were fasted from 18 hours before the start of the experiments. Dipropionylcyclopentenone, dihexanoylcyclopentenone, di-2-hexenoylcyclopentenone, diisobutyrylcyclopentenone or dibenzoylcyclopentenone dissolved in olive oil (Nacalai Tesque) was orally administered to 4 rats per group at 1 or 10 mg/10 ml/kg.
100 μl of 1% λ-carrageenan (Wako Pure Chemical Industries) suspension in saline (Otsuka Pharmaceutical) was injected into the sole of right paw of a rat 0.5 hour after the administration of test substance to induce pedal edema. The volume of the right foot of the rat was measured using an instrument for measuring pedal volume (Ugo Basile) 3 hours after the injection with carrageenan. The measurements were expressed as the rate of increase calculated based on the volume of the right foot of each rat measured before the administration with carrageenan.
FIG. 5 illustrate the relationship between the amount of cyclopentenone derivative administered and the rate of increase in edema in foot. The horizontal axis represents the dose […] and the vertical axis represents the rate of increase (%).

CC(C)C(=O)OC1C=CC(=O)C1OC(=O)C(C)C (stereo not drawn) [Diisobutyrylcyclopentenone, diisobutyrylcyclopentenone]
IC50 [1]: 8.8 µM | Average days of survival (Meth A): 15.5 days | Prolongation rate (Meth A): 132% | 30-day survival number (Meth A; groups of 8 mice): 0 | Amount of TNF mean ± SE ([2]; 10 mg/kg subcutaneous 30 minutes before LPS): 3.39 ± 0.33 ng/mL | TNF mean ± SE ([2]; 30 mg/kg oral 30 minutes before LPS): 3.92 ± 0.13 ng/mL | TNF mean ± SE ([2]; 100 mg/kg oral 30 minutes before LPS): 2.48 ± 0.43 ng/mL | Concentration at which ability to induce HSP70 is maximized [3]: 2.5 µM | Concentration at which ability to induce HSP70 is observed [3]: 1.25 µM | Degree of induction of 70-kDa heat shock protein ([3]; 0.63 μM): ± | Degree of induction of 70-kDa heat shock protein ([3]; 1.3 μM): + | Degree of induction of 70-kDa heat shock protein ([3]; 2.5 μM): +++ | Degree of induction of 70-kDa heat shock protein ([3]; 5 μM): +++ | Degree of induction of 70-kDa heat shock protein ([3]; 10 μM): + | Degree of induction of 70-kDa heat shock protein ([3]; 20 μM): + | Average days of survival ([4]; intraperitoneal 10 mg/kg): 17.0 days | Prolongation rate ([4]; intraperitoneal 10 mg/kg): 136% | 30-day survival number ([4]; intraperitoneal 10 mg/kg): 0 | Average days of survival ([4]; intraperitoneal 30 mg/kg): 25.3 days | Prolongation rate ([4]; intraperitoneal 30 mg/kg): >202% | 30-day survival number ([4]; intraperitoneal 30 mg/kg): 3 | Average days of survival ([4]; oral 30 mg/kg): 15.1 days | Prolongation rate ([4]; oral 30 mg/kg): 121% | 30-day survival number ([4]; oral 30 mg/kg): 0 | Average days of survival ([4]; oral 100 mg/kg): 20.9 days | Prolongation rate ([4]; oral 100 mg/kg): 167% | 30-day survival number ([4]; oral 100 mg/kg): 0 | Death after single oral administration ([5]; in vivo, po, 100 mg/kg): no death was observed | MIC ([6]; Candida albicans, TIMM0136, read-out: Minimum growth inhibitory concentration): 500 µg/mL (≈ 1970 µM)

di-2-hexenoylcyclopentenone
Degree of induction of 70-kDa heat shock protein ([3]; 0.63 μM): ± | Degree of induction of 70-kDa heat shock protein ([3]; 1.3 μM): + | Degree of induction of 70-kDa heat shock protein ([3]; 2.5 μM): ++ | Degree of induction of 70-kDa heat shock protein ([3]; 5 μM): +++ | Degree of induction of 70-kDa heat shock protein ([3]; 10 μM): ± | Degree of induction of 70-kDa heat shock protein ([3]; 20 μM): − | Death after single oral administration ([5]; oral, single dosage of 100 mg/kg): no death was observed | Suppression of edema in foot (FIG. 5) ([7]; 1 mg/kg oral): significant suppression | Suppression of edema in foot (FIG. 5) ([7]; 10 mg/kg oral): significant suppression | Minimum growth inhibitory concentration [6]: 500 µg/mL
